# Publication PMC2801607 (Bioorganic & medicinal chemistry letters, 2009)
# Read-outs that look alike come from different tables or passages of the source.
# What was measured:
# [1] = molecular target: LAR (Homo sapiens, UniProt P10586); test: Selectivity panel: LAR inhibition; type: biochemical
# [2] = molecular target: T1, Tc-Ptp (Homo sapiens, UniProt P17706); test: Selectivity panel: Tc-Ptp inhibition; type: biochemical
# T1 sequence (P17706 1-415): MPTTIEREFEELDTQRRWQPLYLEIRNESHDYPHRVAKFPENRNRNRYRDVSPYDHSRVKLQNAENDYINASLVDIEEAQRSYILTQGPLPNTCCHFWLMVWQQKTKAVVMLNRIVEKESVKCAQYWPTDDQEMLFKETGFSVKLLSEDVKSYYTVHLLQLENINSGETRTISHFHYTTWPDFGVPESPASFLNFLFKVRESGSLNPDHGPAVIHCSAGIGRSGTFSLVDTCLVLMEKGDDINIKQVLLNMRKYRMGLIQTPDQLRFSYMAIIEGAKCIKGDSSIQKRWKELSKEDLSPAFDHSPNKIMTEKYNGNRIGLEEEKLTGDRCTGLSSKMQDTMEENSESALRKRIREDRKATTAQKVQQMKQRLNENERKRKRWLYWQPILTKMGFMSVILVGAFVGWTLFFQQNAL
# [3] = molecular target: T2, CD45 (Homo sapiens, UniProt P08575); test: Selectivity panel: CD45 inhibition; type: biochemical
# T2 sequence (P08575 26-1306): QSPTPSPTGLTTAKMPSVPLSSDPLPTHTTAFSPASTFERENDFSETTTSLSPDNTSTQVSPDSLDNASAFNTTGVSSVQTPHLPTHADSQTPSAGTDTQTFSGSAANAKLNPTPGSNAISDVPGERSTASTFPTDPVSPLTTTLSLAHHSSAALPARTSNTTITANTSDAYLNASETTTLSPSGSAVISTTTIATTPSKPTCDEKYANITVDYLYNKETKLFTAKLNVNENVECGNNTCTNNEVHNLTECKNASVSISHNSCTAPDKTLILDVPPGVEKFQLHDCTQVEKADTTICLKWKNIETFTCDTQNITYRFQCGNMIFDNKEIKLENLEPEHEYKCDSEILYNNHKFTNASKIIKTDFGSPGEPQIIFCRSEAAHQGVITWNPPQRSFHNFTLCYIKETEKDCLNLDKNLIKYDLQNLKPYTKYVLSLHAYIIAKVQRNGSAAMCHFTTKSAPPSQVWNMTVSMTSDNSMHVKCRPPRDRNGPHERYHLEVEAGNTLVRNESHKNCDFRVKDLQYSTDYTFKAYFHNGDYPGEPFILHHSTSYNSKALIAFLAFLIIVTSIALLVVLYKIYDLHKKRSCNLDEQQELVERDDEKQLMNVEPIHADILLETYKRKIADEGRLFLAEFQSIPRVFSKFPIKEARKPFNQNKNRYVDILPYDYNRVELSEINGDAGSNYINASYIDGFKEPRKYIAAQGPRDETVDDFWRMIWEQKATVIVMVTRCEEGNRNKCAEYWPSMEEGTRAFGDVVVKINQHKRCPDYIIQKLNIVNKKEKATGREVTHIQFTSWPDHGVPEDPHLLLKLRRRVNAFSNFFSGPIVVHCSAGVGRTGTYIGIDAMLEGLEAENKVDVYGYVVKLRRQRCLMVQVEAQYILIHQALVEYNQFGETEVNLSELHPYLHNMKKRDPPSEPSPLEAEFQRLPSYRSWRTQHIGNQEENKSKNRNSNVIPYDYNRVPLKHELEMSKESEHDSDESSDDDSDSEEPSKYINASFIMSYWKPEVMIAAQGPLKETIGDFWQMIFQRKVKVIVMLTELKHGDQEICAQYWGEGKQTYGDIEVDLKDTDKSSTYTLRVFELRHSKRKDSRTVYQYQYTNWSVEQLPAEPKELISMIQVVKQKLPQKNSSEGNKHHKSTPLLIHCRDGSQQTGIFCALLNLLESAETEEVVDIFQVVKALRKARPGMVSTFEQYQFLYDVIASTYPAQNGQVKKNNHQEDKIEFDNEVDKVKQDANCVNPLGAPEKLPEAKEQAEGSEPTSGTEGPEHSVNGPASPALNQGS
# [4] = molecular target: T3, PTP1B (Homo sapiens, UniProt P18031); test: Selectivity panel: PTP1B inhibition; type: biochemical
# T3 sequence (P18031 1-435): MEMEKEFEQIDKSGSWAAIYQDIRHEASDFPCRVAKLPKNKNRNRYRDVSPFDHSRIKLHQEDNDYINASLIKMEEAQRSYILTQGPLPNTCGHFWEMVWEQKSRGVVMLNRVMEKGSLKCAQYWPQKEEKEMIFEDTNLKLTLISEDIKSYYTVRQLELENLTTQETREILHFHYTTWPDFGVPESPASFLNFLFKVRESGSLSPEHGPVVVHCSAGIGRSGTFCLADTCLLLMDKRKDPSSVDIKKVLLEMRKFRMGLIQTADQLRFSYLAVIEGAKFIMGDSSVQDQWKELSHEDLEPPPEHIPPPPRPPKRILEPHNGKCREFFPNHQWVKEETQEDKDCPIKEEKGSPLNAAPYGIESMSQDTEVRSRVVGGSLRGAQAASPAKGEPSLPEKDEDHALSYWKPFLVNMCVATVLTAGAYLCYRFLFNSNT
# [5] = molecular target: VHR (Homo sapiens, UniProt P51452); test: Selectivity panel: VHR inhibition; type: biochemical
# [6] = test system: Mtb PtpB; test: biochemical; type: biochemical, Mycobacterium tuberculosis
# [7] = molecular target: Mtb PtpB (Mycobacterium tuberculosis, UniProt I6WXK4); test: biochemical; type: biochemical
# [8] = molecular target: Mycobacterium tuberculosis phosphatase PtpA (Mycobacterium tuberculosis, UniProt P9WIA1); test: PtpA continuous inhibition assay with pNPP substrate; type: biochemical; conditions: PtpA dose-response curve, variable slope (GraphPad Prism)
# [9] = test system: panel of human tyrosine and dual-specificity phosphatases; type: biochemical
# Chain of Mycobacterium tuberculosis phosphatase PtpA (P9WIA1 whole entry): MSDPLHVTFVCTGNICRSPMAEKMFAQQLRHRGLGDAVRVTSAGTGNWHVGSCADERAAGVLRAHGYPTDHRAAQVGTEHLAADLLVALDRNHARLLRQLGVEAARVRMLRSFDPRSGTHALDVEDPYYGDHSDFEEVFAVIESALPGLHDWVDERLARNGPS
# Chain of Mtb PtpB (Mycobacterium tuberculosis, UniProt I6WXK4) (I6WXK4 whole entry, looked up): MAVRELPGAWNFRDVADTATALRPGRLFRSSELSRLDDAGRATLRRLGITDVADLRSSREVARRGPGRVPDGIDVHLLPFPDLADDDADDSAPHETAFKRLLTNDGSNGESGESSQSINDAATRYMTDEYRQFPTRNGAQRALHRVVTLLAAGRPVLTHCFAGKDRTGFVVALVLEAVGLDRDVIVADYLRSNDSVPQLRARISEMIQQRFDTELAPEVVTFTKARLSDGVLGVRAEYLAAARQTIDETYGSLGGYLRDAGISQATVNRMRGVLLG
# Chain of LAR (P10586 30-1907): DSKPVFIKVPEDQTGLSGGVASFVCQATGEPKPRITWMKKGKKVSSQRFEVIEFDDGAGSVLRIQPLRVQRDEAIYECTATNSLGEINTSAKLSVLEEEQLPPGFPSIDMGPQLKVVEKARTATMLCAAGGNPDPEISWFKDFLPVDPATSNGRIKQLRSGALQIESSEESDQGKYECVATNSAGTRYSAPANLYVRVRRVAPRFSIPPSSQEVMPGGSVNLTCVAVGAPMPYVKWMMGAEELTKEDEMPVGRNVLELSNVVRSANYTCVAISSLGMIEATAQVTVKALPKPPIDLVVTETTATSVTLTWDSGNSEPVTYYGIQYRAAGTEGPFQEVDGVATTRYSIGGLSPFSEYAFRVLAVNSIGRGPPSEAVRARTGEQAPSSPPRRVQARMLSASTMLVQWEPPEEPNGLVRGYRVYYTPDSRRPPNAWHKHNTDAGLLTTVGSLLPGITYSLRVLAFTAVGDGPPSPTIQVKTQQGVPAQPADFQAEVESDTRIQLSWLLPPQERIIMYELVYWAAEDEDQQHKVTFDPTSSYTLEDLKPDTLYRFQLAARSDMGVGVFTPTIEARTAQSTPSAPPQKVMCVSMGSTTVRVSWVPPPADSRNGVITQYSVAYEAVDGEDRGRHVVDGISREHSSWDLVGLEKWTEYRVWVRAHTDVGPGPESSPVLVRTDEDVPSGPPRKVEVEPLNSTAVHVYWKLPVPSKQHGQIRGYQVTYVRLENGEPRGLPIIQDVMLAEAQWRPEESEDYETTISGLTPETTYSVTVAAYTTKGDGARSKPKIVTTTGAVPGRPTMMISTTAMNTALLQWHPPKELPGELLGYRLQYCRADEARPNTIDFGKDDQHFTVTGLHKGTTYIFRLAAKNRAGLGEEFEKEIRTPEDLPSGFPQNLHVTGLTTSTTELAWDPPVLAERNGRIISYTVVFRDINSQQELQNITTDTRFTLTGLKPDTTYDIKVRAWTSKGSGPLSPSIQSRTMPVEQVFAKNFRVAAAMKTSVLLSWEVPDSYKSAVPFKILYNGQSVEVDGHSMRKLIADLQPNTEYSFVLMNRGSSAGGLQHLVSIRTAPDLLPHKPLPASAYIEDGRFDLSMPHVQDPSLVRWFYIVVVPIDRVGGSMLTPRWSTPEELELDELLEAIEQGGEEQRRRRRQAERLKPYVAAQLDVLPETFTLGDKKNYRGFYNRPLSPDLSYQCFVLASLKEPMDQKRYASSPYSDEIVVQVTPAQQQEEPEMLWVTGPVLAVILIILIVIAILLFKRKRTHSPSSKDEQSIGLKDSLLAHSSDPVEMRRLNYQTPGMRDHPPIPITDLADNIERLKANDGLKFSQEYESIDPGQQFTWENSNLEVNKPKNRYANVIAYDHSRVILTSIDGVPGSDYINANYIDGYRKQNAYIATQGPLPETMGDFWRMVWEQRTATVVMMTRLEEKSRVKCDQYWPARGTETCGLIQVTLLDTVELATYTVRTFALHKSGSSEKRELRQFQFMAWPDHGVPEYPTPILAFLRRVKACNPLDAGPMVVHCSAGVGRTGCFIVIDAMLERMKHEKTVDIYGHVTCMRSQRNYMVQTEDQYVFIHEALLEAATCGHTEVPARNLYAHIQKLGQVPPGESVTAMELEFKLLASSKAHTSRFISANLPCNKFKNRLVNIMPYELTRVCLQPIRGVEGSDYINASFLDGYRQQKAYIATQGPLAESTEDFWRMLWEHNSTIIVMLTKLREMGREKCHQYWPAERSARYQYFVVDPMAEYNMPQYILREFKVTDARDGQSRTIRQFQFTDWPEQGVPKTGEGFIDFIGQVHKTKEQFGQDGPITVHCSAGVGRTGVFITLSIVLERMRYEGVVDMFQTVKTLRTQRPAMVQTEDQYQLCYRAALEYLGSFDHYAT
# Chain of VHR (P51452 whole entry): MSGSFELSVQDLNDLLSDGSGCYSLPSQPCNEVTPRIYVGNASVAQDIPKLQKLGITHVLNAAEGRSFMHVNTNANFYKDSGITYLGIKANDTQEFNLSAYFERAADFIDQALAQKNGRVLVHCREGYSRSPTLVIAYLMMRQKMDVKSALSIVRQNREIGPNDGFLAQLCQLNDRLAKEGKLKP
Structure (SMILES),Selectivity [1],Selectivity [2],Selectivity [3],Selectivity [4],Selectivity [5],Selectivity [6],Ki [7] [µM],Ki ([7]; PtpB),Hill coefficient h [8],Selectivity for PtpA versus panel of phosphatases [9] [fold]
O=C(Nc1cc(C(F)(F)F)c(Br)c(C(F)(F)F)c1)c1ccc(C(F)(F)P(=O)(O)O)cc1 [Compound 38],>70,>70,>70,>70,>70,>70,> 100,did not inhibit,−1.0 ± 0.1,> 70
O=C(Nc1ccc(C(F)(F)P(=O)(O)O)cc1)Nc1cc(C(F)(F)F)cc(C(F)(F)F)c1 [Compound 43],–,–,–,–,–,–,–,–,−1.1 ± 0.2,–
